Source: patent US20240316066A1, “COMPOSITION COMPRISING PIP4K2C INHIBITOR AS ACTIVE INGREDIENT FOR TREATMENT OF CANCER” (GWANGJU INSTITUTE OF SCIENCE AND TECHNOLOGY, priority 2021, published 2024)
Entries after “also recorded” stand apart in the source; their conditions may differ. Structures can show the parent of a compound that is named as a salt.

Key:
Format in all cases: cell-based
[1] = test system: colorectal cancer cells (HCT-116); assay: MTT assay, colorectal cancer cells (HCT-116); details: HCT-116, 0.625 μM to 10 µM, 24 hours
Protocol: (§1) Cell proliferation was evaluated through MTT analysis. SJCRH30 and CCD-18Co cells were seeded in triplicate in 96-well plates at a density of 2×10^4 cells per well. After 24 hours, each FDA-approved drug was diluted in fetal bovine serum (FBS)-free medium and the cells were treated therewith. After 24 hours of incubation, the medium was replaced with MTT solution (0.5 mg/mL) and the plates were incubated at 37° C. under 5% CO2. After 60 minutes of incubation, the supernatants were removed and 50 μL of DMSO was added to each well. The optical density in each well was measured at 570 nm using a microplate reader (VersaMax, Molecular Devices, USA).
(§2) MTT assay was performed by treating colorectal cancer cells (HCT-116), pancreatic cancer cells (PANC-1), lung cancer cells (A549), and breast cancer cells (MDA-MB-231) with each of ivacaftor and adapalene and treating colorectal cancer cells (HCT-116), pancreatic cancer cells (PANC-1), and lung cancer cells (A549) with dutasteride. The cells were treated with each of the three drugs at concentrations of 0.625 μM, 1.25 μM, 2.5 μM, 5 μM, and 10 µM for 24 hours and then observed.

[2] = test system: SJCRH30 human alveolar rhabdomyosarcoma cells; assay: MTT assay, proliferation of rhabdomyosarcoma cells (SJCRH30); details: for cell proliferation (MTT): SJCRH30, 5 μM and 10 μM; for cell killing effect (MTT): SJCRH30, 10 μM; for IC50: Homo sapiens, Rhabdomyosarcoma cell, SJCRH30, 24 hours, MTT, read-out: IC50 (half maximal inhibitory concentration)
Protocol: (§3) SJCRH30 human alveolar rhabdomyosarcoma cells were purchased from ATCC. Cells were cultured in RPMI1640 supplemented with 10% fetal bovine serum (FBS), 1% penicillin, and streptomycin. CCD-18Co human colon fibroblasts were purchased from the Korea Cell Line Bank. Cells were cultured in DMEM supplemented with 10% fetal bovine serum (FBS), 1% penicillin, and streptomycin. All cells were cultured in an incubator at 37° C. under 5% CO2.
as §1
MTT assay was performed to evaluate the effects of FDA-approved drugs on the proliferation of rhabdomyosarcoma cells (SJCRH30). Rhabdomyosarcoma cells were treated with each of 18 drugs at concentrations of 5 μM and 10 μM, respectively, and observed after 24 hours.
(§4) Rhabdomyosarcoma cells (SJCRH30) and colon fibroblasts (CCD-18Co) were treated with ivacaftor at concentrations of 0.625 μM, 1.25 μM, 2.5 μM, 5 μM, and 10 µM and compared.
MTT assay was performed to compare IC50 (half maximal inhibitory concentration) values of pazopanib HCl, which is used for soft tissue sarcoma patients, and ivacaftor, against rhabdomyosarcoma cells (SJCRH30). Rhabdomyosarcoma cells were treated with each of pazopanib HCl and ivacaftor at concentrations of 0.625 μM, 1.25 μM, 2.5 μM, 5 μM, 10 µM, 20 μM, 40 μM, and 60 µM for 24 hours and then observed.

[3] = test system: breast cancer cells (MDA-MB-231); assay: MTT assay, breast cancer cells (MDA-MB-231); details: MDA-MB-231, 0.625 μM to 10 µM, 24 hours
Protocol: as §1, §2

lung cancer cells (A549) = assay: MTT assay, lung cancer cells (A549); details: A549, 0.625 μM to 10 µM, 24 hours
Protocol: as §1, §2

[4] = test system: pancreatic cancer cells (PANC-1); assay: MTT assay, pancreatic cancer cells (PANC-1); details: PANC-1, 0.625 μM to 10 µM, 24 hours
Protocol: as §1, §2

[5] = test system: CCD-18Co human colon fibroblasts; assay: MTT assay, toxicity to normal cells (CCD-18Co); details: 0.625 μM to 10 µM, all concentrations, 24 hours
Protocol: as §3, §1, §4

SMILES: COc1ccc(-c2ccc3cc(C(=O)O)ccc3c2)cc1C12CC3CC(CC(C3)C1)C2 [adapalene]
- cell proliferation (MTT) [1]: significant decrease in cell proliferation
- cell proliferation (MTT) ([2]; 24 hours): significant decrease in cell proliferation
- cell killing effect (MTT) ([2]; 24 hours): significant cell killing effect
- cell proliferation (MTT) [3]: significant decrease in cell proliferation
- cell proliferation (MTT) (lung cancer cells (A549)): significant decrease in cell proliferation
- cell proliferation (MTT) [4]: significant decrease in cell proliferation

SMILES: C[C@@H](O[C@H]1OCCN(Cc2n[nH]c(=O)[nH]2)[C@H]1c1ccc(F)cc1)c1cc(C(F)(F)F)cc(C(F)(F)F)c1 [aprepitant]
- cell proliferation (MTT) ([2]; 24 hours): significant decrease in cell proliferation
- cell killing effect (MTT) ([2]; 24 hours): significant cell killing effect

SMILES: C[C@]12C=CC(=O)N[C@@H]1CC[C@@H]1[C@@H]2CC[C@]2(C)[C@@H](C(=O)Nc3cc(C(F)(F)F)ccc3C(F)(F)F)CC[C@@H]12 [dutasteride]
- cell proliferation (MTT) [1]: decrease in cell proliferation
- cell proliferation (MTT) ([2]; 24 hours): significant decrease in cell proliferation
- cell killing effect (MTT) ([2]; 24 hours): significant cell killing effect
- cell proliferation (MTT) (lung cancer cells (A549)): decrease in cell proliferation
- cell proliferation (MTT) [4]: decrease in cell proliferation

SMILES: CC(C)(C)c1cc(C(C)(C)C)c(NC(=O)c2c[nH]c3ccccc3c2=O)cc1O [ivacaftor]
- IC50 [2]: 5.11 µM
- cell proliferation (MTT) ([2]; 24 hours): significant decrease in cell proliferation; also recorded: highest effect on cell proliferation reduction
- cell killing effect (MTT) ([2]; 24 hours): significant cell killing effect
- cell number (MTT) ([2]; SJCRH30, at 1.25 μM, 2.5 μM, 5 μM and 10 μM, 24 hours): significant decrease in the cell number
- cell proliferation (MTT) [3]: significant decrease in cell proliferation
- cell proliferation (MTT) (lung cancer cells (A549)): significant decrease in cell proliferation
- cell proliferation (MTT) [4]: significant decrease in cell proliferation
- cell number (MTT), toxicity to normal cells [5]: no significant decrease in the cell number

SMILES: Cc1ccc(Nc2nccc(N(C)c3ccc4c(C)n(C)nc4c3)n2)cc1S(N)(=O)=O [pazopanib HCl]
- IC50 [2]: 40.9 µM
